Counter-ions that a name gives are not always drawn. A value given as a limit tells only on which side of the number the result lay.

The values below come from patent US11098010B2 (priority 2017, dated 2021).

The first assay has as its system HBV rcDNA in HepDE19 cells. Put plainly: HepDE19 assay with bDNA quantitation of HBV rcDNA. Format: cell-based, hepatitis B virus (HBV). The following applies: HepDE19 cells, inhibition of rcDNA formation, 7 day incubation, top concentration 25 μM; read-out: DE-19 bDNA EC50. On the procedure: HepDE19 Assay with bDNA Quantitation of HBV rcDNA:
HepDE19 cell culture system is a HepG2 (human hepatocarcinoma) derived cell line that supports HBV DNA replication and cccDNA formation in a tetracycline (Tet)-regulated manner and produces HBV rcDNA and a detectable reporter molecule dependent on the production and maintenance of cccDNA (Guo, et al., 2007, J. Virol. 81:12472-12484).
HepDE19 (50,000 cells/well) were plated in 96-well collagen-coated tissue-culture treated microtiter plates in DMEM/F12 medium supplemented with 10% fetal bovine serum, 1% penicillin-streptomycin and 1 μg/mL tetracycline and incubated in a humidified incubator at 37° C. and 5% CO2 overnight. Next day, the cells were switched to fresh medium without tetracycline and incubated for 4 hours at 37° C. and 5% CO2. The cells were treated with fresh Tet-free medium with compounds at concentrations starting at 25 μM and a serial, ½ log, 8-point, titration series in duplicate. The final DMSO concentration in the assay was 0.5%. The plates were incubated for 7 days in a humidified incubator at 37° C. and 5% CO2. Following a 7 day-incubation, the level of rcDNA present in the inhibitor-treated wells was measured using a Quantigene 2.0 bDNA assay kit (Affymetrix, Santa Clara, Calif.) with HBV specific custom probe set and manufacturers instructions. Concurrently, the effect of compounds on cell viability was assessed using replicate plates, plated at a density of 5,000 cells/well and incubated for 4 days, to determine the ATP content as a measure of cell viability using the cell-titer glo reagent (CTG; Promega Corporation, Madison, Wis.) as per manufacturer's instructions. The plates were read using a Victor luminescence plate reader (PerkinElmer Model 1420 Multilabel counter) and the relative luminescence units (RLU) data generated from each well was calculated as % inhibition of the untreated control wells and analyzed using XL-Fit module in Microsoft Excel to determine EC50 and EC90 (bDNA) and CC50 (CTG) values using a 4-parameter curve fitting algorithm.
Representative compounds of the invention were tested for their abilities to inhibit formation of relaxed circular DNA (rcDNA) in a HepDE19 assay, as described elsewhere herein.
Turning to `O=C(Nc1ccc(F)c(Cl)c1)c1ccc(F)c2c1OCC2NS(=O)(=O)C1CC1` (single isomer, unassigned) [Compound 207, N-(3-chloro-4-fluorophenyl)-3-(cyclopropanesulfonamido)-4-fluoro-2,3-dihydrobenzofuran-7-carboxamide], the EC50 amounted to 14 µM. As to `O=C(Nc1ccc(F)c(Cl)c1)c1ccc(F)c2c1OCC2NS(=O)(=O)C1CC1` (single isomer, unassigned) [Compound 208, N-(3-chloro-4-fluorophenyl)-3-(cyclopropanesulfonamido)-4-fluoro-2,3-dihydrobenzofuran-7-carboxamide], the EC50 amounted to 0.11 µM. As to `CNC(=O)NC1(C)CCc2c(C(=O)Nc3ccc(F)c(Cl)c3)ccc(F)c21` (single isomer, unassigned) [Compound 223, N-(3-chloro-4-fluorophenyl)-7-fluoro-1-methyl-1-(3-methylureido)-2,3-dihydro-1H-indene-4-carboxamide], the EC50 amounted to 4.52 µM. On to `O=C1NC(=O)C2(CCc3c(C(=O)Nc4ccc(F)c(Cl)c4)ccc(F)c32)N1` (single isomer, unassigned) [Compound 257, N-(3-chloro-4-fluoro-phenyl)-7′-fluoro-2,5-dioxo-spiro[imidazolidine-4,1′-indane]-4′-carboxamide], for which the EC50 is more than 25 µM.

Turning to `O=C1NC(=O)C2(CCc3c(C(=O)Nc4ccc(F)c(Cl)c4)ccc(F)c32)N1` (single isomer, unassigned) [Compound 258, N-(3-chloro-4-fluoro-phenyl)-7′-fluoro-2,5-dioxo-spiro [imidazolidine-4,1′-indane]-4′-carboxamide], the EC50 is 0.57 µM.

Turning to `CN1C(=O)NC2(CCc3c(C(=O)Nc4ccc(F)c(Cl)c4)ccc(F)c32)C1=O` (single isomer, unassigned) [Compound 261, N-(3-chloro-4-fluoro-phenyl)-7′-fluoro-1-methyl-2,5-dioxo-spiro [imidazolidine-4,1′-indane]-4′-carboxamide], the EC50 worked out at 2.7 µM.

Staying with this assay, now noted: Hepatitis B virus, HepDE19, 168 h, HepDE19 cells, inhibition of rcDNA formation, 7 day incubation, top concentration 25 μM; read-out: DE-19 bDNA EC50.
`O=C(Nc1ccc(F)c(Cl)c1)c1cncc2c1CCC2NS(=O)(=O)C1CC1` (racemic) [Compound 268, N-(3-Chloro-4-fluorophenyl)-7-(cyclopropanesulfonamido)-6,7-dihydro-5H-cyclopenta[c]pyridine-4-carboxamide]: the EC50 stood at 8.2 µM. The same measure, in the same setting: with `O=C(NC1CSc2c(C(=O)Nc3ccc(F)c(F)c3)cccc21)OCc1ccccn1` (single isomer, unassigned) [Compound 33, O-Pyridin-2-ylmethyl, N-(7-((3,4-difluorophenyl)carbamoyl)-2,3-dihydrobenzo[b]thiophen-3-yl) carbamate hydrochloride] the figure was 1.1 µM; with `Cc1cc(NC(=O)c2ccc(F)c3c2OCC3NC(=O)OCc2ccccn2)ccc1F` (single isomer, unassigned) [Compound 206, O-Pyridin-2-ylmethyl, N-(4-fluoro-7-((4-fluoro-3-methylphenyl)carbamoyl)-2,3-dihydrobenzofuran-3-yl)carbamate], 0.41 µM; with `CNC(=O)NC1c2c(F)ccc(C(=O)Nc3ccc(F)c(Cl)c3)c2CC1(F)F` (single isomer, unassigned) [Compound 211, N-(3-chloro-4-fluorophenyl)-2,2,7-trifluoro-1-(3-methylureido)-2,3-dihydro-1H-indene-4-carboxamide], 6.9 µM. Still for that read-out and setting: for `CNC(=O)NC1(C)CCc2c(C(=O)Nc3ccc(F)c(Cl)c3)ccc(F)c21` (single isomer, unassigned) [Compound 215, N-(3-Chloro-4-fluorophenyl)-7-fluoro-1-methyl-1-(3-methylureido)-2,3-dihydro-1H-indene-4-carboxamide] the value was 3.8 µM.

The assay is the same for the next values; noted with them: Hepatitis B virus, HepDE19, 168 h, read-out: DE-19 bDNA EC50 (μM), HepDE19 cells, inhibition of rcDNA formation, 7 day incubation, top concentration 25 μM.
Regarding `COC(=O)NC1CSc2c(C(=O)Nc3ccc(F)c(Cl)c3)cccc21` (single isomer, unassigned) [Compound 38, O-Methyl, N-(7-((3-chloro-4-fluorophenyl)carbamoyl)-2,3-dihydrobenzo[b]thiophen-3-yl) carbamate], the EC50 is more than 25 µM.

Staying with this assay, now noted: read-out: DE-19 bDNA EC50; HepDE19 cells, inhibition of rcDNA formation, 7 day incubation, top concentration 25 μM.
Regarding `CNC(=O)NC1COc2c(C(=O)Nc3ccc(F)c(F)c3)cccc21` (single isomer, unassigned) [Compound 7, N-(3,4-difluorophenyl)-3-(3-methylureido)-2,3-dihydrobenzofuran-7-carboxamide], the EC50 was 1.9 µM. Turning to `CNC(=O)NC1COc2c(C(=O)Nc3ccc(F)c(F)c3)cccc21` (single isomer, unassigned) [Compound 8, N-(3,4-difluorophenyl)-3-(3-methylureido)-2,3-dihydrobenzofuran-7-carboxamide], the EC50 is 23 µM.

Turning to `COC(=O)NC1CSc2c(C(=O)Nc3ccc(F)c(F)c3)cccc21` (single isomer, unassigned) [Compound 30, O-Methyl, N-(7-((3,4-difluorophenyl)carbamoyl)-2,3-dihydrobenzo[b]thiophen-3-yl)carbamate], the EC50 was 1.8 µM. In the case of `COC(=O)NC1CSc2c(C(=O)Nc3ccc(F)c(F)c3)cccc21` (single isomer, unassigned) [Compound 31, O-Methyl, N-(7-((3,4-difluorophenyl)carbamoyl)-2,3-dihydrobenzo[b]thiophen-3-yl)carbamate], the EC50 is more than 25 µM. Consider `CNC(=O)NC1c2c(F)ccc(C(=O)Nc3ccc(F)c(Cl)c3)c2CC1(C)C` (single isomer, unassigned) [Compound 134, N-(3-Chloro-4-fluorophenyl)-7-fluoro-2,2-dimethyl-1-(3-methylureido)-2,3-dihydro-1H-indene-4-carboxamide], for which the EC50 is 0.36 µM.

As for `CNC(=O)NC1COc2c(C(=O)Nc3ccc(F)c(Cl)c3)ccc(F)c21` (single isomer, unassigned) [Compound 189, N-(3-Chloro-4-fluorophenyl)-4-fluoro-3-(3-methylureido)-2,3-dihydrobenzofuran-7-carboxamide], the EC50 is 0.45 µM. Take `CNC(=O)NC1COc2c(C(=O)Nc3ccc(F)c(Cl)c3)ccc(F)c21` (single isomer, unassigned) [Compound 190, N-(3-Chloro-4-fluorophenyl)-4-fluoro-3-(3-methylureido)-2,3-dihydrobenzofuran-7-carboxamide]: the EC50 was more than 25 µM. `O=C(NC1COc2c(C(=O)Nc3ccc(F)c(Cl)c3)ccc(F)c21)OCc1ccccn1` (single isomer, unassigned) [Compound 191, O-Pyridin-2-ylmethyl, N-(7-((3-chloro-4-fluorophenyl)carbamoyl)-4-fluoro-2,3-dihydrobenzofuran-3-yl)carbamate]: the EC50 was 18 µM.

`O=C(NC1COc2c(C(=O)Nc3ccc(F)c(Cl)c3)ccc(F)c21)OCc1ccccn1` (single isomer, unassigned) [Compound 192, O-Pyridin-2-ylmethyl, N-(7-((3-chloro-4-fluorophenyl)carbamoyl)-4-fluoro-2,3-dihydrobenzofuran-3-yl)carbamate]: the EC50 came to 0.31 µM. For the compound `CNC(=O)NC1COc2c(C(=O)Nc3ccc(F)c(C)c3)ccc(F)c21` (single isomer, unassigned) [Compound 203, 4-Fluoro-N-(4-fluoro-3-methylphenyl)-3-(3-methylureido)-2,3-dihydrobenzofuran-7-carboxamide], the EC50 was more than 25 µM. Still for that read-out and setting: with `CNC(=O)NC1COc2c(C(=O)Nc3ccc(F)c(C)c3)ccc(F)c21` (single isomer, unassigned) [Compound 204, 4-Fluoro-N-(4-fluoro-3-methylphenyl)-3-(3-methylureido)-2,3-dihydrobenzofuran-7-carboxamide] the figure was 0.2 µM; with `CNC(=O)NC1c2c(F)ccc(C(=O)Nc3ccc(F)c(Cl)c3)c2CC1(C)C` (single isomer, unassigned) [Compound 249, N-(3-Chloro-4-fluorophenyl)-7-fluoro-2,2-dimethyl-1-(3-methylureido)-2,3-dihydro-1H-indene-4-carboxamide], 13 µM.

The same assay, now with this note: read-out: DE-19 bDNA EC50; HepDE19 cells, inhibition of rcDNA formation, 7 day incubation, top concentration 25 μM; hydrochloride.
In the case of `O=C(NC1CSc2c(C(=O)Nc3ccc(F)c(F)c3)cccc21)OCc1ccccn1` (single isomer, unassigned) [Compound 34, O-Pyridin-2-ylmethyl, N-(7-((3,4-difluorophenyl)carbamoyl)-2,3-dihydrobenzo[b]thiophen-3-yl)carbamate hydrochloride], the EC50 was more than 25 µM.
